The term Kd denotes the constant that tells how readily two partners part at equilibrium. Read a low Kd as tighter binding.

In assay [1] the test system is wild-type (WT) 5′UTR of KDM5C mRNA (RNA, mRNA element) UGGCGAAGGCUGCGGUACGACGGCCACACGCC
Description: microscale thermophoresis (Monolith NT.115). Particulars: DEPC water; RNA stock 40 nM; 1 mM putrescine stock, 16-step 1:2 dilution; 4PL sigmoidal fit. In general terms: In MST a laser heats a spot of the sample, and binding alters the fluorescence response.

Assay [2] concerns mutant (mut) 5′UTR of KDM5C mRNA (RNA, mRNA element) UGGCGUGGGCUGCGGUACGACGGCCACACGCC
Briefly: microscale thermophoresis (Monolith NT.115). Particulars: DEPC water; RNA stock 40 nM; 1 mM putrescine stock (highest), 16-step 1:2 dilution.

In assay [1], `NCCCCN` had a Kd of 52.3 µM. For the same compound, in assay [2], the binding entry was “no”.

The record behind these values is publication PMC12408367 (2025).
